Assay results as given in US7342090B1, “Fab-epitope complex from the HIV-1 cross-neutralizing monoclonal antibody 2F5” (University of Toronto, priority 1999, dated 2008).
Square brackets hold non-standard residues; d marks the D form. Ends that are not written are not given here. Dap = NC[C@H](N)C(=O)O

Tested on: monoclonal antibody 2F5
Assay: Immuno-complex formation of constrained peptides with monoclonal antibody 2F5
Type: binding, human
Conditions: subsequently co-crystallized with the Fab′ fragment

Sequence of monoclonal antibody 2F5 (as listed by the source, other chains not shown): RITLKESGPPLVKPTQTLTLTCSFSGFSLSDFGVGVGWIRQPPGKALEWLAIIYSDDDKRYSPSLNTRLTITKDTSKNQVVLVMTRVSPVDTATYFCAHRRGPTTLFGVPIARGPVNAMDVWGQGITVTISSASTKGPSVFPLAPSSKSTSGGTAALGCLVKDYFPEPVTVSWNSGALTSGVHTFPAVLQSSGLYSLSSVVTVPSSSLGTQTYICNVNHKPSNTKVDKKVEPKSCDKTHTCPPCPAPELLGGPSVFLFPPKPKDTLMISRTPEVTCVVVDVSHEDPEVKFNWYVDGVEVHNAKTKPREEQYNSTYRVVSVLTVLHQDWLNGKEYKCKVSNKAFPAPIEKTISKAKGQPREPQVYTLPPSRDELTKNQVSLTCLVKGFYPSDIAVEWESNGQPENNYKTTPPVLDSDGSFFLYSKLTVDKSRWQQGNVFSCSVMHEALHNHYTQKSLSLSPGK

ECDKWCS [CLP-634]
formation of an immuno-complex with monoclonal antibody 2F5: capable of forming an immuno-complex

E[Dap]DKWES [CLP-1309]
formation of an immuno-complex with monoclonal antibody 2F5: capable of forming an immuno-complex
